Data reported in patent publication US8455444B2, “CDH3 peptide and medicinal agent comprising the same” (Oncotherapy Science, Inc., priority 2007, dated 2013).
Entries after “also recorded” stand apart in the source; their conditions may differ. Where a SMILES comes first, the peptide text is derived from it.

Assays:
Format in all cases: cell-based
[1] = tested on: SKHep1/CDH3; assay: 51Cr release assay of peptide-induced human CTLs against cancer cell line; conditions: FIG. 4C: CTLs from PBMCs of HLA-A2 positive cancer patients
Procedure: (§1) Human pancreatic cancer cell line PK8 was kindly provided by the Cell Resource Center for Biomedical Research, Institute of Development, Aging and Cancer, Tohoku University. Human colon cancer cell line HCT116 was kindly provided by Dr. B. Vogelstein, Johns Hopkins University (Baltimore, Md.). Human liver cancer cell line SKHep1 was kindly provided by Professor Kyogo Ito, Kurume University (Kurume, Japan).
(§2) After 60 hours, the culture medium was recovered and the viral particles were pelleted by ultracentrifugation (50,000×g, two hours).
(§3) PBMCs derived from heparinized blood of HLA-A2 positive pancreatic cancer patients, gastric cancer patients, colorectal cancer patients, or healthy donors were isolated by Ficoll-Conray density gradient centrifugation. […] DCs were pulsed with 20 μg/mL of a candidate peptide in the presence of 4 μg/mL β2-microglobulin (Sigma-Aldrich, St. Louis, Mo., USA) for two hours at 37° C. in AIM-V (Invitrogen) containing 2% heat-inactivated autologous plasma. These DCs were then irradiated (40 Gy) and incubated with CD8 positive cells. The incubation was carried out in 24-well plates, which were prepared to contain in each well 2 mL of AIM-V supplemented with 2% autologous plasma, 1×10^5 peptide-pulsed DCs, 2×10^6 CD8^+ T cells, and 5 ng/mL of human recombinant IL-7 (Wako, Osaka, Japan). After two days, these cultures were supplemented with human recombinant IL-2 (PeproTec Inc.) to a final concentration of 20 IU/mL. Two additional weekly stimulations with the same peptide-pulsed autologous DCs using the same procedure were carried out on day 7 and day 14. Six days after the last stimulation, the antigen-specific responses of induced CTLs were evaluated by ^51Cr release assay and IFN-γ ELISPOT assay.

[2] = tested on: PANC1/CDH3; assay: as above; conditions: for cytotoxicity to PANC1/CDH3: FIG. 4C: CTLs from PBMCs of HLA-A2 positive cancer patients
Procedure: as §1, §2, §3

[3] = tested on: HCT116; assay: as above; conditions: for cytotoxicity to HCT116 (CDH3+, HLA-A2+): CTLs from healthy donors; for cytotoxicity to HCT116: FIG. 4C: CTLs from PBMCs of HLA-A2 positive cancer patients
Text: as §1, §3

[4] = tested on: PK8; assay: as above; conditions: CTLs from healthy donors
Text: as §1, §3

[5] = tested on: HSC3; assay: as above; conditions: CTLs from healthy donors
Text: as §1, §3

[6] = tested on: PANC1; assay: as above; conditions: CTLs from healthy donors
Text: as §1, §3

[7] = tested on: SKHep1; assay: as above; conditions: CTLs from healthy donors
Text: as §1, §3

[8] = tested on: T2 cells; assay: 51Cr release assay of peptide-induced human CTLs against peptide-pulsed T2 cells; conditions: CTLs induced from PBMCs of HLA-A2 positive healthy donors, three stimulations
Text: as §1
PBMCs derived from heparinized blood of HLA-A2 positive pancreatic cancer patients, gastric cancer patients, colorectal cancer patients, or healthy donors were isolated by Ficoll-Conray density gradient centrifugation. […] DCs were pulsed with 20 μg/mL of a candidate peptide in the presence of 4 μg/mL β2-microglobulin (Sigma-Aldrich, St. Louis, Mo., USA) for two hours at 37° C. in AIM-V (Invitrogen) containing 2% heat-inactivated autologous plasma. These DCs were then irradiated (40 Gy) and incubated with CD8 positive cells. […] Six days after the last stimulation, the antigen-specific responses of induced CTLs were evaluated by ^51Cr release assay and IFN-γ ELISPOT assay.
CD8 T cells sorted from PBMCs were incubated with autologous mononuclear cell (monocyte)-derived DCs pulsed with each peptide. After three stimulations, cytocidal effect against peptide-pulsed T2 cells was evaluated by ^51Cr release assay (FIG. 4A) and IFN-γ ELISPOT assay.

Compound | cytotoxicity to SKHep1/CDH3 (CDH3+, HLA-A2+) [1] | cytotoxicity to PANC1/CDH3 (CDH3+, HLA-A2+) ([2]; CTLs from healthy donors) | cytotoxicity to PANC1/CDH3 [2] | cytotoxicity to HCT116 (CDH3+, HLA-A2+) [3] | cytotoxicity to HCT116 [3] | cytotoxicity to PK8 (CDH3+, HLA-A2−) [4] | cytotoxicity to HSC3 (CDH3+, HLA-A2+) [5] | cytotoxicity to PANC1 (CDH3−, HLA-A2+) [6] | cytotoxicity to SKHep1 (CDH3−, HLA-A2+) [7] | cytotoxicity (cytocidal effect) against peptide-pulsed T2 cells ([8]; listed as CDH3-4655-663) | cytotoxicity (cytocidal effect) against peptide-pulsed T2 cells ([8]; listed as CDH3-7757-765)
CC[C@H](C)[C@H](NC(=O)[C@@H](N)Cc1ccccc1)C(=O)N[C@@H](CC(C)C)C(=O)N1CCC[C@H]1C(=O)N[C@H](C(=O)N[C@@H](CC(C)C)C(=O)NCC(=O)N[C@@H](C)C(=O)N[C@H](C(=O)O)C(C)C)C(C)C [CDH3-4, FILPVLGAV] (H-FILPVLGAV-OH) | exhibited cytotoxicity | exhibited in healthy donors cytotoxicity | exhibited cytotoxicity | exhibited in healthy donors cytotoxicity | exhibited cytotoxicity | did not exhibit the same effect | exhibited in healthy donors cytotoxicity | did not exhibit the same effect | did not exhibit the same effect | exhibited cytocidal effect; also recorded: exhibited cytotoxicity | 
CC[C@H](C)[C@H](NC(=O)[C@@H](NC(=O)[C@@H](N)Cc1ccccc1)[C@@H](C)CC)C(=O)N[C@@H](CCC(=O)O)C(=O)N[C@@H](CC(N)=O)C(=O)N[C@@H](CC(C)C)C(=O)N[C@@H](CCCCN)C(=O)N[C@@H](C)C(=O)N[C@@H](C)C(=O)O [CDH3-7, FIIENLKAA] (H-FIIENLKAA-OH) | exhibited cytotoxicity |  | exhibited cytotoxicity |  | exhibited cytotoxicity |  | exhibited cytotoxicity |  |  |  | exhibited cytocidal effect; also recorded: exhibited cytotoxicity
CC(C)C[C@H](NC(=O)[C@@H](NC(=O)[C@H](C)NC(=O)[C@H](Cc1ccc(O)cc1)NC(=O)[C@@H](NC(=O)[C@H](CC(N)=O)NC(=O)[C@H](Cc1ccc(O)cc1)NC(=O)[C@H](CC(C)C)NC(=O)[C@@H](N)CO)[C@@H](C)O)[C@@H](C)O)C(=O)O [HIV peptide, SLYNTYATL, reference compound] (H-SLYNTYATL-OH) |  |  |  | did not exhibit cytotoxicity; also recorded: did not show cytotoxicity |  |  |  |  |  |  | 
